Laboratory results: patent US20240076380A1, “DEVICE AND METHODS FOR RAPIDLY SCREENING AND TREATING CLINICAL CANCER PATIENTS WITH IMMUNOREGULATORY DRUGS” (Shanghai Lide Biotech Co., Ltd., priority 2022, published 2024)

What was measured:
[1] = tested on: peripheral blood tumor cells and immune cells of acute myeloid leukemia (AML) patients in PVDF capsule tubes; assay: IO-FIVE capsule test in nude mice, two AML patients #123 and #124 of Example 5 (CTG cell viability and FACS, day 14); format: in vivo, human
Method: BALB/c Nude mice (available from Jiangsu Jicui Yaokang Biotechnology Co. Ltd.) aged 6-8 weeks were ordered from the supplier and kept in the animal house at SPF level. The animals were adaptively kept for at least 3 days before the start of the experiment.
Fresh peripheral blood samples from two acute myeloid leukemia (AML) patients (in the acute phase of AML) were collected and placed in anticoagulant tubes and transported to the central laboratory by cold chain (2-8° C.) within a short period of time.
The peripheral blood samples of different patients were transferred into the biological safety cabinet. The cells were centrifuged using a gradient centrifugation gel (available from SIGMA) with a density of 1.077 g/mL at room temperature. […] After resuspension in cell culture medium (available from Gibco), the cells were counted. […]
3-21 days after administration (e.g., day 14 here), the mice were euthanized, and the PVDF tubes were removed. Cell viability was quantified by the CellTiter-Glo chemiluminescence method. Changes in the relative ratio and phenotype of tumor cells and immune cells in PVDF tubes were detected by flow cytometry. Bioinformatic changes of tumor cells and immune cells in PVDF capsule tubes of clinical samples at day 0 or day 10 were detected by molecular biological methods (RNA sequencing, and DNA sequencing technology, etc.). […]

[2] = tested on: peripheral blood and/or bone marrow tumor cells and immune cells of acute myeloid leukemia (AML) patients in PVDF capsule tubes; assay: IO-FIVE capsule test in nude mice, three AML patients #128, #129, #131 of Example 6 (CTG cell viability and FACS, day 14); format: in vivo, human
Method: Fresh peripheral blood samples and/or bone marrow from three acute myeloid leukemia (AML) patients (in the acute phase) were collected and placed in anticoagulant tubes, and transported to the central laboratory by cold chain (2-8° C.) within a short period of time.
Quality control analysis was performed according to the data obtained by flow cytometry so as to meet the requirement that the ratio of CD8+ T cells was at least more than 0.5% (the required minimum concentration), and the tumor cells (CD45^low/+ SSC-A^mid/hi CD33+/CD38+ cells) and the CD45^high SSC-A^lowCD3+ T lymphocytes were uniformly mixed according to a certain ratio (C/T (CD38+Cancer/CD3+T)=1.5:1 to 15:1), and then filled into PVDF tubes and sealed.
Cell viability as measured by luminescence (CTG method) on day 14: according to the viability value of the cells in the control group (as shown in FIG. 21), the proliferation viability of all the cells in the drug administration group was calculated, and then the efficacy of the drug was calculated.
Flow cytometry detection on day14: the relative ratio of tumor cells and immune cells in PVDF tubes was detected by flow cytometry. The differences between tumor cells and immune cells in the drug group and the control group were compared (as shown in FIG. 22). The results were analyzed by Flowjo software.

[3] = tested on: metastatic tumor tissue (tumor cells and immune cells) of a patient with ovarian cancer in PVDF capsule tubes; assay: IO-FIVE capsule test in nude mice, ovarian cancer patient of Example 3 (CTG cell viability and FACS, day 10); format: in vivo, human; details: tumor sample after addition of autologous TIL cells (C/T 8)
Description: Experimental Animals, Sample Collection, and Cell Processing were the Same as in Example 1.
The following was collected for cell phenotyping identification: a single cell suspension of patient tumor tissue samples before purification, tumor cells after purification, enriched immune cells (containing CD3+ T cells) eluted from the column, and a cell suspension in which tumor cells after purification and immune cells were mixed in a certain ratio (1.5:1 to 15:1), to yield a final cell count of 0.1 to 0.3 million cells. […]
Cells within the Tubing The basic operational steps were the same as those in Example 1. According to the data analyzed by flow cytometry, the CD45− tumor cells and CD3+ T cells were mixed in a certain ratio (about 1.5:1-15:1). […]
3-21 days after administration (day 10 here), the mice were euthanized, and the PVDF tubes were removed. Cell viability was quantified by the CellTiter-Glo chemiluminescence method, and the relative ratio and basic phenotype of tumor cells and immune cells in PVDF tubes were detected by flow cytometry.
Adjusted to the viability value of the cells in the control vehicle group (as shown in FIG. 9), the proliferation viability of all cells in the drug administration group was calculated, and then the efficacy of the drug to be tested was calculated. […]

[4] = tested on: patient with ovarian cancer; details: monotherapy

## Daratumumab [CD38 antibody]
[1]; patient #123, C/T about 15:1, CD8+ T 0.21%
  response (cell viability by CTG, FACS): did not respond
[1]; patient #124, C/T about 6:1
  response / inhibitory effect on cell viability (CTG) compared with control vehicle: great response
[2]; patient #128
  proportion of cancer blasts in the capsules (FACS): cancer blasts still occupied a dominant proportion in the capsules
[2]; patient #129
  proportion of cancer blasts in the capsules (FACS): cancer blasts still occupied a dominant proportion in the capsules
[2]; patient #131
  AML blasts and CD8+ TILs (FACS): less AML blasts and more CD8+ TILs
[2]; patient #131, C/T 4.5
  response (cell viability, CTG): positive response

## NC(=O)c1cccc2cn(-c3ccc([C@@H]4CCCNC4)cc3)nc12 [PARP inhibitor, Niraparib]
[3]
  viability of total cells / overall tumor viability (CTG): neither PD1 antibody nor PARP inhibitor mono-therapy could inhibit the overall tumor viability
[4]
  clinical response of the patient: poor clinical response
